Measured values published in patent US20260130377A1 (SYNGENTA CROP PROTECTION AG, priority 2022, published 2026).

Assays:
Zymoseptoria tritici = test: liquid culture assay, 96 well plate, Zymoseptoria tritici; type: cell-based
Description: (§1) Cyclothiazomycin C was produced as disclosed in WO2015191789. A stock solution for cyclothiazomycin C was produced in DMSO (max. 10 mg/ml). Malonomicin was produced according to Law et al, 2018 (Nature Catalys is|VOL 1|DECEMBER 2018|977-984). A stock solution of malonomicin was produced in water plus 0.025% Tween®20.
(§2) Assays to test efficacy of mixtures of cyclothiazomycin C in combination with malonomicin on the control of fungal pathogens in a liquid culture assay were designed for a 96 well plate.
(§3) A master plate with 10× concentrated solution of the compound stock solutions diluted in water plus 0.025% Tween20 was prepared. The concentration of DMSO (from the stock of cyclothiazomycin C) and Tween20 was kept constant in all cells of th the master plate. 10 μl was transferred from the master plate to a 96 well test plate. The nutrient broth containing the fungal spores/mycelia fragments was then added to the test plate to give an end concentration of 1× for the tested compounds (as outlined in Table 1). The test plates were incubated in the dark at 24° C. and 96% rh. The inhibition of fungal growth was determined photometrically after ca. 3 days, and percent fungal growth reduction relative to the untreated check was calculated. Efficacy of the mixtures was tested on different fungal species:
Zymoseptoria tritici (EPPO Code: SEPTTR)
(§4) Conidia of the fungus from cryogenic storage were directly mixed into nutrient broth (PDB: potato dextrose broth).

Fusarium culmorum = test: liquid culture assay, 96 well plate, Fusarium culmorum; type: cell-based
Description: as §1, §2, §3
Fusarium culmorum (EPPO Code: FUSACU)
as §4

Microdochium nivale = test: liquid culture assay, 96 well plate, Microdochium nivale; type: cell-based
Description: as §1, §2, §3
Microdochium nivale (EPPO Code: MONGNI)
as §4

Botrytis cinerea = test: liquid culture assay, 96 well plate, Botrytis cinerea; type: cell-based
Description: as §1, §2, §3
Botrytis cinerea (EPPO Code: BOTRCI)
Conidia of the fungus from cryogenic storage were directly mixed into nutrient broth (Vogel's minimal media).

Puccinia recondita [1] = test: wheat leaf disc assay, Puccinia recondita, preventive spray timing; type: in vivo
Description: as §1, with “Tween20.” for “Tween®20.”
(§5) Assays to test efficacy of mixtures of cyclothiazomycin C in combination with malonomicin on the control of fungal pathogens in a leaf disc assay were designed for two plates.
(§6) A first set of master plates with 1× concentrated spray solution of the cyclothiazomycin C stock diluted in water with concentrations according to Table 11 or Table 12, respectively, was prepared. Each well contained 2% DMSO and 0.025% Tween20. Accordingly, a second set of master plates with 1× concentrated malonomicin stock diluted in water was prepared. Each well of the second set contained 0.025% Tween20. Leaf segments placed on agar in plates are sprayed with 8 ul of solution from the master plate containing cyclothiazomycin C and the leaf segments were let to dry, followed 2 hours later by 8 ul of solution from the master plate containing malonomicin. After second sprays have dried, leaf segments are infected with fungal spores to obtain a preventive application timing. Alternatively, leaf segments infected one day before spray of the compounds are used, resulting in a curative spray timing. In addition, several plates were produced where leaf segments were sprayed 2× in absence of test compound (with only DMSO and Tween20), representing the untreated check samples. For each leaf segment percent leaf coverage of disease symptoms was assessed. Percent leaf coverage reduction relative to the untreated check was calculated. Efficacy of the mixtures was tested in duplicate. Reported efficacy values are the average of two replicate results.
Puccinia recondita (EPPO Code: PUCCRE) with Preventive Spray Timing.
Wheat (cultivar Kanzler) leaf segments are placed on agar in multiwell plates and sprayed with test solutions (8 ul per well). After drying, the leaf disks are inoculated with a spore suspension of the fungus. After appropriate incubation the activity of a compound is assessed 8 dpi (days after inoculation) as preventive fungicidal activity.

Puccinia recondita [2] = test: wheat leaf disc assay, Puccinia recondita, curative spray timing; type: in vivo
Description: as §1, with “Tween20.” for “Tween®20.”
as §5, §6
Puccinia recondita (EPPO Code: PUCCRE) with Curative Spray Timing.
Wheat (cultivar Kanzler) leaf segments are placed on agar in multiwell plates. The leaf disks are then inoculated with a spore suspension of the fungus. One day after inoculation the test solution is sprayed (8 ul per well). After appropriate incubation the activity of a compound is assessed 8 dpi (days after inoculation) as curative fungicidal activity

[3] = test system: a variety of fungal strains; conditions: quoted from WO2015191789, page 31; cited from earlier work
genus Bacillus = conditions: quoted from WO2015191789, page 31; cited from earlier work
[4] = cyclothiazomycin C 1.56 ppm solo
[5] = cyclothiazomycin C 3.125 ppm solo
[6] = cyclothiazomycin C 6.25 ppm solo
[7] = cyclothiazomycin C 12.5 ppm solo
[8] = cyclothiazomycin C 100 ppm solo
[9] = cyclothiazomycin C 3.13 ppm solo
[10] = cyclothiazomycin C 200 ppm solo

## C=C1NC(=O)CNC(=O)[C@H](CCCCN)NC(=O)[C@@]2(C)NC(=O)/C(=C/C)NC(=O)[C@H]3CSC(=N3)[C@@H](CC(N)=O)NC(=O)c3ccc(nc3[C@@H](C)NC(=O)[C@@H]3CCCN3C1=O)-c1nc(cs1)C1=N[C@H](CS1)C(=O)NC(=C)c1nc(cs1)-c1nc(cs1)C1=N[C@@H](CS1)C(=O)N[C@@H](C(=O)O)CS2 [cyclothiazomycin C]
Zymoseptoria tritici; [4]
  control of fungal growth: 70%
Zymoseptoria tritici; [5]
  control of fungal growth: 70%
Zymoseptoria tritici; [6]
  control of fungal growth: 70%
Zymoseptoria tritici; [7]
  control of fungal growth: 70%
Zymoseptoria tritici; cyclothiazomycin C 25 ppm solo
  control of fungal growth: 90%
Zymoseptoria tritici; cyclothiazomycin C 50 ppm solo
  control of fungal growth: 90%
Zymoseptoria tritici; [8]
  control of fungal growth: 100%
Fusarium culmorum; [4]
  control of fungal growth: 20%
Fusarium culmorum; [5]
  control of fungal growth: 20%
Fusarium culmorum; [6]
  control of fungal growth: 20%
Fusarium culmorum; [7]
  control of fungal growth: 20%
Fusarium culmorum; cyclothiazomycin C 25 ppm solo
  control of fungal growth: 20%
Fusarium culmorum; cyclothiazomycin C 50 ppm solo
  control of fungal growth: 20%
Fusarium culmorum; [8]
  control of fungal growth: 20%
Microdochium nivale; [4]
  control of fungal growth: 70%
Microdochium nivale; [5]
  control of fungal growth: 70%
Microdochium nivale; [6]
  control of fungal growth: 70%
Microdochium nivale; [7]
  control of fungal growth: 70%
Microdochium nivale; cyclothiazomycin C 25 ppm solo
  control of fungal growth: 90%
Microdochium nivale; cyclothiazomycin C 50 ppm solo
  control of fungal growth: 90%
Microdochium nivale; [8]
  control of fungal growth: 90%
Botrytis cinerea; [4]
  control of fungal growth: 20%
Botrytis cinerea; [5]
  control of fungal growth: 20%
Botrytis cinerea; [6]
  control of fungal growth: 20%
Botrytis cinerea; [7]
  control of fungal growth: 20%
Botrytis cinerea; cyclothiazomycin C 25 ppm solo
  control of fungal growth: 20%
Botrytis cinerea; cyclothiazomycin C 50 ppm solo
  control of fungal growth: 20%
Botrytis cinerea; [8]
  control of fungal growth: 20%
Puccinia recondita [1]; [9]
  control of fungal growth (% reduction of symtoms on the leaf segment): 0%
Puccinia recondita [1]; [6]
  control of fungal growth (% reduction of symtoms on the leaf segment): 0%
Puccinia recondita [1]; [7]
  control of fungal growth (% reduction of symtoms on the leaf segment): 10%
Puccinia recondita [1]; cyclothiazomycin C 25 ppm solo
  control of fungal growth (% reduction of symtoms on the leaf segment): 95%
Puccinia recondita [1]; cyclothiazomycin C 50 ppm solo
  control of fungal growth (% reduction of symtoms on the leaf segment): 95%
Puccinia recondita [1]; [8]
  control of fungal growth (% reduction of symtoms on the leaf segment): 95%
Puccinia recondita [1]; [10]
  control of fungal growth (% reduction of symtoms on the leaf segment): 100%
Puccinia recondita [2]; [9]
  control of fungal growth (% reduction of symtoms on the leaf segment): 0%
Puccinia recondita [2]; [6]
  control of fungal growth (% reduction of symtoms on the leaf segment): 10%
Puccinia recondita [2]; [7]
  control of fungal growth (% reduction of symtoms on the leaf segment): 0%
Puccinia recondita [2]; cyclothiazomycin C 25 ppm solo
  control of fungal growth (% reduction of symtoms on the leaf segment): 0%
Puccinia recondita [2]; cyclothiazomycin C 50 ppm solo
  control of fungal growth (% reduction of symtoms on the leaf segment): 0%
Puccinia recondita [2]; [8]
  control of fungal growth (% reduction of symtoms on the leaf segment): 0%
Puccinia recondita [2]; [10]
  control of fungal growth (% reduction of symtoms on the leaf segment): 0%
[3]
  growth inhibitory action toward a variety of fungal strains: none was observed
Genus Bacillus
  antimicrobial inhibitory activity: greatest inhibitory activity
